Reference: patent US7462641B2, “(2S,4S)-4-fluoro-1-[4-fluoro-beta-(4-fluorophenyl)-L-phenylalanyl]-2-pyrrolidinecarbonitrile p-toluenesulfonic acid salt and anhydrous crystalline forms thereof” (SmithKline Beecham Corporation, priority 2003, dated 2008)
Structures can show the parent of a compound that is named as a salt.

Assays:
[1] = Moisture sorption testing (gas flow microbalance, VTI SGA-100); format: physicochemical; conditions: for hygroscopicity: 25° C.
Procedure: The sample was equilibrated at 25° C. and 30% relative humidity and the relative humidity increased stepwise (adsorption) to 40, 50, 60, 70, 80, 90%—each relative humidity step was held until the sample equilibrated at that condition. Equilibrium was defined as a weight change of less than 0.015% in 5 minutes. The relative humidity was then decreased step wise (desorption) to 90, 80, 70, 60, 50, 40, 30, 20, 10, and 5%—each step held until equilibrium was reached. The equilibrium condition was the same as in the sorption phase. The % w/w increase or decrease in moisture content of the sample is reported for each equilibrated RH condition.
The sample was dried at 60C under a dry nitrogen stream until the rate of weight loss was less than 0.015% in 5 minutes. After drying the sample was equilibrated at 25C and the relative humidity increased stepwise (adsorption) to 5, 20, 45, 75, and 95%—each relative humidity step was held until the sample equilibrated at that condition or a 180 minute time limit was reached. Equilibrium was defined as a weight change of less than 0.015% in 5 minutes. The relative humidity was then decreased step wise (desorption) to 75, 45, and 20%—each step held until equilibrium was reached. The equilibrium condition was the same as in the sorption phase. The % w/w increase or decrease in moisture content of the sample is reported for each equilibrated RH condition.

[2] = Stability testing in 40 C/75% RH oven; format: physicochemical; conditions: after two (2) weeks in an 40 C/75% RH oven
DPP IV = DPP IV (Homo sapiens, UniProt P27487); conditions: as noted in WO 03/02531; cited from earlier work
DPP IV, sequence (P27487 whole entry, species assumed): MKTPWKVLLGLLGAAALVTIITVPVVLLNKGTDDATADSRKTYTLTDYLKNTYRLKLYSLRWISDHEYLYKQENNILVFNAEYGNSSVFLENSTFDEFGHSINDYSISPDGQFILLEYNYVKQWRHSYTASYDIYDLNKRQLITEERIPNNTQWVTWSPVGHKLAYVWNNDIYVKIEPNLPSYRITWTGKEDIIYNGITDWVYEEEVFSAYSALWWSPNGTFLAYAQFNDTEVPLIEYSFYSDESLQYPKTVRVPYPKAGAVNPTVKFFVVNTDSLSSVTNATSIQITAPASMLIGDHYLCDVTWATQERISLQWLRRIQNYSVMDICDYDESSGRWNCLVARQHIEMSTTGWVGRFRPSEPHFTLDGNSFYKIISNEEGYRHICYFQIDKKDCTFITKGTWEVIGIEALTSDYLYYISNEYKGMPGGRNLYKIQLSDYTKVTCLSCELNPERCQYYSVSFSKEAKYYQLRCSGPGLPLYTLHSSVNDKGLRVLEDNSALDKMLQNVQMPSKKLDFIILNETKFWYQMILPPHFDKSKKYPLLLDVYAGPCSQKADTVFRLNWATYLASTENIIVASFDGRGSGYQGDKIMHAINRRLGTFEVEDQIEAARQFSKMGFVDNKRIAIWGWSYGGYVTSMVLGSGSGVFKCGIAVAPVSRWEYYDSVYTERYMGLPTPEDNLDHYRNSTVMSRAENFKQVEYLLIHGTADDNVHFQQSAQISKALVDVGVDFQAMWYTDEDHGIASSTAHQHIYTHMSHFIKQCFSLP

| Compound | hygroscopicity [1] | water adsorbed ([1]; relative humidity between 0% and 95% at 25C) | water adsorbed ([1]; relative humidity between 5% to 90% at 25° C.) | desorption of adsorbed water ([1]; when the relative humidity is decreased) | stability (purity data) [2] | hygroscopicity ([1]; hydrochloride) | water adsorbed ([1]; 95% relative humidity at 25° C.) [%] | inhibition activity of DPP IV (DPP IV) |
| --- | --- | --- | --- | --- | --- | --- | --- | --- |
| N#C[C@@H]1C[C@H](F)CN1C(=O)[C@@H](N)C(c1ccc(F)cc1)c1ccc(F)cc1 [anhydrate form 1, (2S,4S)-4-fluoro-1-[4-fluoro-β-(4-fluorophenyl)-L-phenylalanyl]-2-pyrrolidinecarbonitrile p-toluenesulfonic acid salt] | not hygroscopic | less than 1 % w/w | very little water | readily desorbs | beneficial properties with regard to stability | – | – | – |
| N#C[C@@H]1C[C@H](F)CN1C(=O)[C@@H](N)C(c1ccc(F)cc1)c1ccc(F)cc1 [HCl salt, (2S,4S)-1-[(2S)-2-Amino-3,3-bis(4-fluorophenyl)propanoyl]-4-fluoropyrrolidine-2-carbonitrile hydrochloride, reference compound] | – | – | – | – | – | hygroscopic | > 10 | demonstrates inhibition activity of DPP IV |
